Results published in PubChem BioAssay (NCI).
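Where inhibition never reached the appropriate level, the endpoint shown equals the highest concentration tested. Otherwise, values were interpolated linearly from a five-concentration, 48-hour dose response in 96-well plates. GI50 marks 50% less growth. The concentration for full growth arrest is given as TGI.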

Key:
Experiment in all cases: NCI anticancer screen, dose series, 48 h
[1] = system: NCI-H460 lung
[2] = system: A549 NSCLC
[3] = system: COLO 205 colon
[4] = system: M14 melanoma
[5] = system: 786-0 renal
[6] = system: MOLT-4 leukemia

Row | SMILES | TGI [1] | TGI [2] | TGI [3] | TGI [4] | TGI [5] | TGI [6] | GI50 [2] | GI50 [3] | GI50 [6]
1 | CCCCCCCCCCCCCCCCCCOCC(O)COP(=O)(O)OCC1OC(n2cc(F)c(=O)[nH]c2=O)CC1O (stereo unspecified) | 21.1 µM | 25.9 µM | 21.9 µM | 15.5 µM | 17.8 µM | 21.6 µM |  |  | 
2 | O=C(O)c1ccc(Nc2nc3cc(C(F)(F)F)ccc3nc2C(=O)O)cc1 | > 100 µM |  | > 100 µM |  | > 100 µM | > 100 µM |  |  | 
3 | COC(=O)C(C)Sc1nc2cc(Cl)ccc2s1 (stereo unspecified) | > 100 µM | > 100 µM | > 100 µM | > 100 µM | > 100 µM | > 100 µM |  |  | 
4 | CCCCSc1n/c(=C\c2ccc(N(C)C)cc2)c2nnnn12 | > 100 µM | > 100 µM | > 100 µM | > 100 µM | > 100 µM | > 100 µM |  |  | 
5 | N#CC1=CNc2sccc2S1(=O)=O | > 100 µM | > 100 µM | > 100 µM | > 100 µM | > 100 µM | > 100 µM |  |  | 
6 | OCCN=C1Nc2ccc(Cl)cc2C(=S)N2CSC[C@@H]12 | > 100 µM | > 100 µM | > 100 µM | > 100 µM | > 100 µM | > 100 µM |  |  | 
7 | COc1ccc(CNc2nc(NCc3ccc(OC)cc3)nc(N3CCOCC3)n2)cc1 | > 100 µM | > 100 µM | > 100 µM | > 100 µM | > 100 µM | 10.9 µM |  |  | 
8 | COc1cc(/C=C2/SC(c3ccccc3)N(c3cccc([N+](=O)[O-])c3)C2=O)cc(OC)c1OC (stereo unspecified) | > 100 µM | > 100 µM | > 100 µM | > 100 µM | > 100 µM | > 100 µM |  |  | 
9 | COc1ccc(NC2Oc3cc4c(cc3C(c3cc(OC)c(O)c(OC)c3)C2C)OCO4)cc1 (stereo unspecified) | 23.3 µM | 23.5 µM | 39 µM | > 100 µM | 37.9 µM |  |  |  | 
10 | CCOC(=O)c1cn(-c2ccc(Cl)cc2)c(=O)n2c1nc1ccccc12 | > 100 µM | > 100 µM | > 100 µM | > 100 µM | > 100 µM | > 100 µM |  |  | 
11 | CSc1ncc2c(n1)-c1ccccc1OC2N1CCCC1 (stereo unspecified) | > 100 µM | > 100 µM | > 100 µM | > 100 µM | > 100 µM | > 100 µM |  |  | 
12 | CC(C)n1c(=O)n(-c2ccccc2)n(C(C)(C)C)c1=O | > 100 µM | > 100 µM | > 100 µM | > 100 µM | > 100 µM | > 100 µM |  |  | 
13 | CSC(=NC1=NC(C(F)(F)F)(C(F)(F)F)N=C(c2ccccc2)O1)SC | > 100 µM | > 100 µM | 46.5 µM | 54.6 µM | 43.5 µM | 85.3 µM |  |  | 
14 | Cc1ccc(S(=O)(=O)N2CCN(CCN(C)CCN3CCN(S(=O)(=O)c4ccc(C)cc4)CC3)CC2)cc1 | 32.2 µM | 76.1 µM | 38.9 µM | 31.2 µM | 39.3 µM | 36 µM |  |  | 
15 | COC1/C=C/C(C)C(C(C)C(OC)C(C)CCC(=O)C(C)C(CCC(=O)O)OC)OC(=O)/C=C/C=C(\C)CC(OC)CC2=CC(=O)O[C@@H](C(C)C(OC)CC(OC)/C=C/C(C)C(OC)C1)[C@H]2O (stereo partly specified) | > 5 µM | > 5 µM | > 5 µM | > 5 µM | > 4.55 µM | > 3.93 µM |  |  | 
16 | N#CCCN(CCCN(C(=O)Nc1ccccc1)c1ccccc1)C(=O)Nc1ccccc1 | > 100 µM | > 100 µM | > 100 µM | > 100 µM | > 100 µM | > 100 µM |  |  | 
17 | COc1ccc2c(c1)CCc1c-2n(CCN(C)C)c2ccc(OC)cc12 | > 100 µM | > 100 µM | > 100 µM | > 100 µM | > 100 µM | 59.1 µM |  |  | 
18 | CCOP(=O)(OCC)C(Nc1ccc(F)cc1)c1cccc([N+](=O)[O-])c1 (stereo unspecified) | > 100 µM | > 100 µM | > 100 µM | > 100 µM |  | > 100 µM |  |  | 
19 | Cc1ccc(O)c(C2=NNC(c3cccc(Br)c3)C2)c1 (stereo unspecified) | > 100 µM | > 100 µM | > 100 µM | > 100 µM | > 100 µM | > 100 µM |  |  | 
20 | O=C(O)c1ccccc1/C=N\NC1=NCCCCN1 | > 100 µM | > 100 µM | > 100 µM | > 100 µM | > 100 µM | > 100 µM |  |  | 
21 | CSC1SCC2C(=O)N(C)C3(CC3C)C(=O)OCC(NC(=O)c3nc4ccccc4cc3O)C(=O)NC(C)C(=O)N(C)C1C(=O)N(C)C1(CC1C)C(=O)OCC(NC(=O)c1nc3ccccc3cc1O)C(=O)NC(C)C(=O)N2C (stereo unspecified) | 0.875 µM | 20.1 µM | < 0.0001 µM | < 0.0001 µM |  |  |  |  | 
22 | COc1c/c(=C2/C=c3ccccc3=N2)[nH]/c1=C/c1[nH]c(C)cc1C |  | > 100 µM | 1.26 µM |  |  | 2.95 µM | 0.219 µM | 0.0659 µM | 0.0293 µM
23 | O=C(/C=C/c1ccc([N+](=O)[O-])cc1)c1nc2ccccc2[nH]1 | > 100 µM | > 100 µM | > 100 µM | > 100 µM | > 100 µM | 99.7 µM |  |  | 
24 | Cc1ccc2c(c1)OC1Nc3ccccc3C1=C2O (stereo unspecified) | 64.3 µM | > 100 µM | 29.2 µM | 68 µM | 66 µM | > 100 µM |  |  | 
25 | Cc1cc(S(=O)(=O)Nc2nnc3cc(C(F)(F)F)cc(C)n23)c(S)cc1Cl | 42.5 µM | 52.8 µM | > 100 µM | > 100 µM | > 100 µM | > 100 µM |  |  | 
26 | Cc1[nH]c(-c2ccccc2)c(-c2ccc(Cl)cc2)c1C(=O)ONC(=O)c1ccccc1 | 5.11 µM | 10.4 µM | 22.9 µM | 19.9 µM | 4.46 µM | 6.97 µM |  |  | 
27 | CCOC(=O)c1sc2c(c1OC(=O)c1ccccc1)c(=O)n(-c1ccccc1)c(=S)n2-c1ccccc1 | 41.5 µM | 64.2 µM | > 100 µM | 45.2 µM | 29.4 µM | > 100 µM |  |  | 
28 | O=C(NCCO)c1ccc(Cl)cc1 | > 100 µM | > 100 µM |  | > 100 µM | > 100 µM | > 100 µM |  |  | 
